{
  "source": "paper PMC7601839",
  "about": "“Anti-Acne Effects of Cembrene Diterpenoids from the Cultured Soft Coral Sinularia flexibilis” (Marine Drugs, 2020)",
  "key": {"COX-2 [1]": {"tested_on": "COX-2", "set-up": "method as in PMID 23774887", "settings": "LPS-stimulated RAW264.7 macrophage cells; cited from earlier work"}, "iNOS [2]": {"tested_on": "iNOS", "set-up": "method as in PMID 23774887", "settings": "LPS-stimulated RAW264.7 macrophage cells; cited from earlier work"}, "[3]": {"tested_on": "LPS-induced RAW 264.7 cells (NO production)", "assay": "NO production (Griess) in LPS-induced RAW 264.7 cells", "type": "cell-based", "procedure": "(§1) Anti-inflammatory effects were analyzed in RAW 264.7 cells, which were cultured in DMEM with 10% FBS, 1% L-glutamine, and 1% penicillin-streptomycin, and maintained at 37 °C in a 5% CO2 atmosphere. RAW 264.7 cells (4.0 × 10^5 cells/mL) were seeded in 96-well plates and co-treated with LPS (500 ng/mL) and test samples. After 24 h, NO production was determined by Griess reagent, and the absorption was detected at 530 nm. The percentage inhibition of NO production was presented as the anti-inflammatory activity. PGE2 concentrations in cell culture media were determined with a PGE2 enzyme-linked immunosorbent assay (ELISA) kit (Enzo Life Sciences, Farmingdale, NY, USA). The survival rate of RAW 264.7 cells was detected using an MTT assay."}, "[4]": {"tested_on": "HKC-induced RAW 264.7 cells (NO production)", "assay": "NO production (Griess) in heat-killed C. acnes (HKC)-induced RAW 264.7 cells", "type": "cell-based", "settings": "Mus musculus, RAW264.7, 24 h, read-out: IC50 Value of NO Inhibition", "procedure": "(§2) C. acnes (4 × 10^8 cfu/mL) was heated at 80 °C for 30 min and killed. Heat-killed C. acnes (HKC) was freeze-dried as a powder and maintained at 4 °C until use. RAW 264.7 and HaCaT cells were cultured in DMEM with 10% FBS, 1% penicillin-streptomycin, and 1% L-glutamine at 37 °C in a 5% CO2 atmosphere. RAW 264.7 cells (4 × 10^5 cells/mL) and HaCaT cells (10^5 cells/mL) were seeded in six-well plates and co-treated with HKC (300 μg/mL) and test samples [24]. After 24 h, NO production was determined by adding the Griess reagent in the cell culture medium, and the absorption was measured in an ELISA reader at 530 nm. The sample culture medium was removed, and RAW 264.7 cells and HaCaT cells were washed with PBS."}, "p-ERK [5]": {"tested_on": "p-ERK", "assay": "Western blot of p-ERK in HKC-treated HaCaT cells", "type": "cell-based, human", "settings": "30 min after HKC induction", "procedure": "(§3) Whole-cell lysates were prepared using radioimmunoprecipitation (RIPA) assay. Proteins in lysate samples (30 μg) were analyzed using 10% sodium dodecylsulfate-polyacrylamide gel electrophoresis (SDS-PAGE). Gels were transferred to nitrocellulose membranes and probed with primary iNOS (clone N-20), COX-2 (clone C-20), p-ERK (clone N-20), p-JNK (clone N-20), and glyceraldehyde-3-phosphate dehydrogenase (GAPDH; clone 6C5) antibodies (Santa Cruz Biotechnology, Santa Cruz, CA, USA). Membranes were visualized with a BCIP/NBT kit (Gibco BRL, Grand Island, NY, USA). Protein expression was quantified using the Azure Biosystem C300 Imaging System. GAPDH expression was used as an internal control to compare with protein expressions of iNOS, COX-2, p-ERK, and p-JNK [24].\nas §2"}, "iNOS [6]": {"tested_on": "iNOS", "assay": "Western blot of iNOS in LPS-induced RAW 264.7 cells", "type": "cell-based", "settings": "24 h", "procedure": "as §3"}, "p-JNK [7]": {"tested_on": "p-JNK", "assay": "Western blot of p-JNK in LPS-induced RAW 264.7 cells", "type": "cell-based", "settings": "30 min, SC-2 2.5–20 μM, SC-7 5–40 μM, SC-9 2.5–20 μM", "procedure": "as §3"}, "[8]": {"tested_on": "Dihydrotestosterone-induced HaCaT cells", "assay": "Anti-proliferative activity in dihydrotestosterone-treated HaCaT cells (MTT)", "type": "cell-based, human", "procedure": "(§4) HaCaT cells (10^5 cells/mL) were seeded in 96-well plates and co-treated with testosterone (5 μg/mL) or DHT (5 μg/mL) and test samples with no cytotoxicity for 48 h. Cell proliferative activity was detected by an MTT assay."}, "[9]": {"assay": "Survival rate of RAW 264.7 cells by MTT assay", "type": "cell-based", "settings": "mouse, LPS-induced RAW 264.7 cells, read-out: Cell Viability (%)", "procedure": "as §1"}, "[10]": {"tested_on": "Testosterone-induced HaCaT cells", "assay": "Anti-proliferative activity in testosterone-treated HaCaT cells (MTT)", "type": "cell-based, human", "procedure": "as §4"}, "iNOS [11]": {"tested_on": "iNOS", "assay": "Western blot of iNOS in HKC-treated RAW 264.7 cells", "type": "cell-based", "procedure": "as §3, §2"}, "COX-2 [12]": {"tested_on": "COX-2", "assay": "Western blot of COX-2 in LPS-induced RAW 264.7 cells", "type": "cell-based", "settings": "6 h and 24 h", "procedure": "as §3"}, "[13]": {"tested_on": "LPS-induced RAW 264.7 cells (PGE2 production)", "assay": "PGE2 production (ELISA) in LPS-induced RAW 264.7 cells", "type": "cell-based", "settings": "24 h", "procedure": "as §1"}, "COX-2 [14]": {"tested_on": "COX-2", "assay": "Western blot of COX-2 in HKC-treated RAW 264.7 cells", "type": "cell-based", "procedure": "as §3, §2"}, "p-JNK [15]": {"tested_on": "p-JNK", "assay": "Western blot of p-JNK in HKC-treated RAW 264.7 cells", "type": "cell-based", "settings": "SC-2 2.5–20 μM, SC-7 5–40 μM, SC-9 2.5–20 μM", "procedure": "as §3, §2"}, "HaCaT cells [16]": {"tested_on": "HaCaT cells", "assay": "Cytotoxicity analysis in HaCaT cells", "type": "cell-based, human"}, "p-ERK [17]": {"tested_on": "p-ERK", "assay": "Western blot of p-ERK in LPS-induced RAW 264.7 cells", "type": "cell-based", "settings": "30 min, SC-2 2.5–20 μM, SC-7 5–40 μM, SC-9 2.5–20 μM", "procedure": "as §3"}, "p-ERK [18]": {"tested_on": "p-ERK", "assay": "Western blot of p-ERK in HKC-treated RAW 264.7 cells", "type": "cell-based", "settings": "SC-2 2.5–20 μM, SC-7 5–40 μM, SC-9 2.5–20 μM", "procedure": "as §3, §2"}, "HaCaT cells [19]": {"tested_on": "HaCaT cells", "settings": "20 nM, 48 h", "experimental": "HaCaT cells (10^5 cells/mL) were seeded in 96-well plates and co-treated with testosterone (5 μg/mL) or DHT (5 μg/mL) and test samples with no cytotoxicity for 48 h [2, 25, 26]. Cell proliferative activity was detected by an MTT assay."}},
  "data": [
    {"smiles": "C=C1C(=O)O[C@]2(C)CC[C@@H]1C[C@@H]1O[C@@]1(C)CC/C=C(\\C)CC[C@H]2O", "note": "[11-epi-sinulariolide]", "values": [
      {"measurement": "accumulation of COX-2 protein", "setting": "COX-2 [1]", "value": "could reduce"},
      {"measurement": "accumulation of the proinflammatory iNOS protein", "setting": "iNOS [2]", "value": "significantly inhibit"}
    ]},
    {"smiles": "C=C1C(=O)OC2(C)CCC1CC1OC1(C)CCC=C(C)CCC2=O", "note": "(centres unmarked) [SC-2, 11-dehydrosinulariolide]", "values": [
      {"measurement": "inhibition at 20 µM", "setting": "[3]; Mus musculus, RAW264.7, 24 h", "value": "92.4 ± 3", "unit": "%"},
      {"measurement": "IC50", "setting": "[3]; Mus musculus, RAW264.7, 24 h, read-out: IC50 Value of NO Inhibition", "value": "5.66 ± 0.19", "unit": "µM"},
      {"measurement": "IC50", "setting": "[4]", "value": "5.81 ± 0.4", "unit": "µM"},
      {"measurement": "p-ERK protein expression", "setting": "p-ERK [5]", "value": "significant inhibitory effects"},
      {"measurement": "accumulation of COX-2 protein", "setting": "COX-2 [1]", "value": "could reduce"},
      {"measurement": "iNOS protein expression", "setting": "iNOS [6]", "value": "decreased iNOS protein expression"},
      {"measurement": "accumulation of the proinflammatory iNOS protein", "setting": "iNOS [2]", "value": "significantly inhibit"},
      {"measurement": "p-JNK protein expression", "setting": "p-JNK [7]", "value": "dose-dependent inhibitory effects"},
      {"measurement": "keratinocyte over-proliferation by DHT", "setting": "[8]; HaCaT keratinocytes", "value": "inhibited keratinocyte over-proliferation"},
      {"measurement": "inhibition at 1.25 µM", "setting": "[8]; Homo sapiens, dihydrotestosterone-induced HaCaT cells, 1.25 μM", "value": "10.6 ± 3", "unit": "%"},
      {"measurement": "inhibition at 2.5 µM", "setting": "[8]; Homo sapiens, dihydrotestosterone-induced HaCaT cells, 2.5 μM", "value": "12.3 ± 3.1", "unit": "%"},
      {"measurement": "inhibition at 5 µM", "setting": "[8]; Homo sapiens, dihydrotestosterone-induced HaCaT cells, 5 μM", "value": "16.8 ± 4", "unit": "%"},
      {"measurement": "viability at 24 h, 20 µM", "setting": "[9]", "value": "102 ± 9.4", "unit": "%"},
      {"measurement": "inhibition at 1.25 µM", "setting": "[10]; Homo sapiens, testosterone-induced HaCaT cells, 1.25 μM", "value": "11.9 ± 5.5", "unit": "%"},
      {"measurement": "inhibition at 2.5 µM", "setting": "[10]; Homo sapiens, testosterone-induced HaCaT cells, 2.5 μM", "value": "13.5 ± 1.1", "unit": "%"},
      {"measurement": "inhibition at 5 µM", "setting": "[10]; Homo sapiens, testosterone-induced HaCaT cells, 5 μM", "value": "17.4 ± 2.8", "unit": "%"},
      {"measurement": "testosterone-induced HaCaT cell proliferation", "setting": "[10]; SC-2 1.25–5, SC-7 2.5–10, SC-9 0.08–0.32 μM, 48 h", "value": "significantly decreased"},
      {"measurement": "iNOS expression", "setting": "iNOS [11]", "value": "significant inhibitory effects"},
      {"measurement": "COX-2 protein expression", "setting": "COX-2 [12]", "value": "did not present identical COX-2 inhibitory effects"},
      {"measurement": "inhibitory effect on prostaglandin E2 (PGE2) production", "setting": "[13]", "value": "no inhibitory effect"},
      {"measurement": "COX-2 expression", "setting": "COX-2 [14]", "value": "no changes"},
      {"measurement": "p-JNK expression", "setting": "p-JNK [15]", "value": "good inhibitory effects"},
      {"measurement": "concentrations with no cytotoxicity to HaCaT cells", "setting": "HaCaT cells [16]; HaCaT cells", "value": "1250 to 10000", "unit": "nM"},
      {"measurement": "growth inhibition of HaCaT cells", "setting": "HaCaT cells [16]; at high doses", "value": "caused growth inhibition"},
      {"measurement": "p-ERK protein expression", "setting": "p-ERK [17]", "value": "dose-dependent inhibitory effects"},
      {"measurement": "p-ERK expression", "setting": "p-ERK [18]", "value": "good inhibitory effects"}
    ]},
    {"smiles": "C=C(C(=O)O)[C@@H]1CC[C@@](C)(O)[C@@H]2CC[C@@](C)(O2)[C@@H](OC(C)=O)CC[C@]2(C)O[C@H]2C1", "note": "[SC-6, dendronpholide F]", "values": [
      {"measurement": "inhibitory effects on NO expression", "setting": "[3]", "value": "no inhibitory effects"},
      {"measurement": "inhibition at 20 µM", "setting": "[3]; Mus musculus, RAW264.7, 24 h", "value": -15.1, "unit": "%"},
      {"measurement": "viability at 24 h, 20 µM", "setting": "[9]", "value": "96.1 ± 0.4", "unit": "%"}
    ]},
    {"smiles": "C/C1=C\\CC[C@](C)(O)[C@H]2C[C@@H](CC[C@]3(C)O[C@H]3CC1)[C@H](C)C(=O)O2", "note": "[SC-10, dihydrosinularin]", "values": [
      {"measurement": "inhibitory effects on NO expression", "setting": "[3]", "value": "no inhibitory effects"},
      {"measurement": "inhibition at 20 µM", "setting": "[3]; Mus musculus, RAW264.7, 24 h", "value": "28.2 ± 4.6", "unit": "%"},
      {"measurement": "viability at 24 h, 20 µM", "setting": "[9]", "value": "117 ± 1.9", "unit": "%"}
    ]},
    {"smiles": "C[C@]12CC[C@H]3[C@@H](CCC4=CC(=O)CC[C@@]43C)[C@@H]1CC[C@@H]2O", "note": "[testosterone]", "values": [
      {"measurement": "HaCaT cell proliferation", "setting": "HaCaT cells [19]", "value": "significantly induced"}
    ]}
  ]
}
